The data set concerns B cell. Kind of data set: Cytotoxicity screening of chemical probes in isolated B cell assay. Data is normalized to DMSO control, the cell viability average of replicates are reported. Reduction of ATP level more than 20% indicate compromised cell health status. Particulars: human.

The source of these data is ChEMBL document CHEMBL5724562, “Toxicity screen in isolated B cell assay results for EUbOPEN Chemogenomics Library” (2024).

Structures are written as SMILES.

Regarding `CCc1ccccc1C(=O)Nc1n[nH]c2c(C)c(F)c(C3C(C#N)=C(C)N(C)C(C)=C3C#N)cc12` [BAY-3827], the “Cell Viability” value (1 µM) stood at 97.1659%.
For the compound `Cc1cn(-c2cc(NC(=O)c3ccc4c(c3)CN(c3cncnc3)C[C@@H]4C)cc(C(F)(F)F)c2)cn1`, the “Cell Viability” value (1 µM) turned out to be 96.9111%.
Regarding `C[C@@H](NC(=O)Nc1cc2[nH]ncc2c(CO)n1)c1ccccc1` [ERKi], where the note is “1 µM”, the “Cell Viability” value was 88.9841%.
The same measure, in the same setting: the figure for `C[C@@H](O[C@H]1OCCN(Cc2n[nH]c(=O)[nH]2)[C@H]1c1ccc(F)cc1)c1cc(C(F)(F)F)cc(C(F)(F)F)c1` [APREPITANT] is 101.584%; for `CN1C[C@H](Nc2cnn(C)c(=O)c2Br)C[C@H](c2ccccc2)C1` it is 94.5817%.
On the same count and under the same terms, the figure for `O=C(/C=C/N1C[C@H]2C[C@@H]1CN2c1ccccn1)c1ccccc1O` is 91.7355%; for `C[C@H]1CCCN1Cc1nc2cc(NC(=O)c3ccc4cnccc4c3)ccc2[nH]1` it is 90.4338%; for `CCOC(=O)Nc1cc(-c2ccc(C)c(NS(C)(=O)=O)c2)nn2c(C)nnc12` it is 84.5677%.
Still for that read-out and setting: the figure for `Cc1c(N2CCCC2)nc2ccc(Br)cc2c1C(=O)NC[C@H](CCC(=O)O)c1ccccc1Cl` [BAY-6672] is 98.0293%; for `CCC(=O)N1CCOc2c(cc(-c3ccc(OC)c(OC)c3)cc2OCC2CCCN(C)C2)C1` (configuration not stated) it is 98.9735%.
On to `CCCc1cc(C)[nH]c(=O)c1CNC(=O)c1cc(-c2ccnc(N3CCN(C)CC3)c2)cc2c1cnn2C(C)C`, for which the “Cell Viability” value (1 µM) was 92.8371%.
For `CCC(=O)N[C@H]1CC[C@@H](C(=O)N(C)c2ccc(-c3nc4ccccc4o3)cc2)C1` [BI 99179], the “Cell Viability” value (1 µM) is listed as 102.234%.
On the same count and under the same terms, as for `O=C(NC[C@H](O)CN1CCc2ccccc2C1)c1ccnc(NC2CCC2)c1`, the figure is 91.5741%; as for `C[C@H](NC(=O)c1cnc2n1[C@](C)(Cc1ccc(C#N)cc1)C(=O)N2c1cc(Cl)c(F)c(Cl)c1)C(=O)NC1(c2ccccn2)CC1` [BI 1950], 96.273%; as for `O=C(NC[C@@H]1[C@H]2CN(C(=O)OCc3cc(C(F)(F)F)cc(C(F)(F)F)c3)C[C@@H]12)c1ccc2[nH]nnc2c1` [BI 2545], 100.102%.
`CC(C)N(CCCNC(=O)Nc1ccc(C(C)(C)C)cc1)C[C@H]1O[C@@H](n2cc(Br)c3c(N)ncnc32)[C@H](O)[C@@H]1O`: under “1 µM”, the “Cell Viability” value is listed as 95.9292%.
With `Cc1cc(Cn2cnc3c2C[C@@H](C(=O)O)N(C(=O)C(c2ccccc2)c2ccccc2)C3)ccc1N(C)C`, under “1 µM”, the “Cell Viability” value turned out to be 100.94%.
`CC(C)NC(=O)N1CC[C@H](NC2=Nc3cc(F)ccc3N(CC(F)F)c3ccc(Cl)cc32)C1`: the “Cell Viability” value (1 µM) was 98.1837%.
Consider `CC(C)N(CCCCOCC(=O)NS(C)(=O)=O)c1cnc(-c2ccccc2)c(-c2ccccc2)n1` [SELEXIPAG], for which, for the setting “1 µM”, the “Cell Viability” value was 99.3334%.
In the case of `CCCCN(CCCC)C(=O)CN1C[C@H](c2cc(OC)c3c(c2)OCO3)[C@@H](C(=O)O)[C@@H]1CC(C)(C)CCC.Cc1ccc(S(=O)(=O)O)cc1`, the “Cell Viability” value (0.1 µM) is reported as 100.019%.
Turning to `CN(C)C(=O)/C(C#N)=C/c1ccc(-c2nc3cnc4[nH]ccc4c3n2C2CCCCC2)o1`, under “1 µM”, the “Cell Viability” value is listed as 89.3026%.
The same measure, in the same setting: the figure for `CCNC(=O)c1cc2c(N3CCOCC3C)ccnc2[nH]1` (configuration not stated) is 99.1799%; for `O=C(O)CNC(=O)c1c(O)c2ccccc2n(Cc2ccccc2)c1=O` it is 96.2966%.
As for `CCc1nc2c(C)cc(C)nc2[nH]1`, for the setting “1 µM”, the “Cell Viability” value was 100.659%.
With `Cn1cc(CCn2cnc(-c3cnn(C)c3)c2-c2ccc(C#N)cc2)cn1`, the “Cell Viability” value (1 µM) is reported as 99.8514%.
With `CC[C@H]1OC(=O)[C@H](C)[C@@H](O[C@H]2C[C@@](C)(OC)[C@@H](O)[C@H](C)O2)[C@H](C)[C@@H](O[C@@H]2O[C@H](C)C[C@H](N(C)C)[C@H]2O)[C@@]2(C)CC(C)=C(O2)[C@H](C)[C@@H](O)[C@]1(C)O`, where the note is “1 µM”, the “Cell Viability” value was found to be 98.1033%.
The same measure, in the same setting: as for `COC(c1ccccc1)(c1ccccc1)[C@H](Oc1nc(C)cc(C)n1)C(=O)O` [AMBRISENTAN], the figure is 104.904%.
